# Results from ChEMBL document CHEMBL4138123, “Design, synthesis and biological evaluation of novel pyrazolochalcones as potential modulators of PI3K/Akt/mTOR pathway and inducers of apoptosis in breast cancer cells” (Eur J Med Chem, 2017).
# Key:
# Format in all cases: functional
# [1] = system: RXF 393; assay: Cytotoxicity against human RXF393 cells assessed as cell growth at 1 uM after 48 hrs by sulforhodamine B assay relative to control; details: RXF 393, 48 h, read-out: Activity
# [2] = system: UO-31; assay: Cytotoxicity against human UO31 cells assessed as growth inhibition after 48 hrs by sulforhodamine B assay; details: UO-31, 48 h
# [3] = system: SK-MEL-28; assay: Cytotoxicity against human SK-MEL-28 cells assessed as cell growth at 0.1 uM after 48 hrs by sulforhodamine B assay relative to control; details: SK-MEL-28, 48 h, read-out: Activity
# [4] = system: NCI-H226; assay: Cytotoxicity against human NCI-H226 cells assessed as cell growth at 10 uM after 48 hrs by sulforhodamine B assay relative to control; details: NCI-H226, 48 h, read-out: Activity
# [5] = system: SK-MEL-5; assay: Cytotoxicity against human SK-MEL-5 cells assessed as growth inhibition after 48 hrs by sulforhodamine B assay; details: SK-MEL-5, 48 h
# [6] = system: MDA-MB-435; assay: Cytotoxicity against human MDA-MB-435 cells assessed as growth inhibition after 48 hrs by sulforhodamine B assay; details: MDA-MB-435, 48 h
# [7] = system: NCI-H322M; assay: Cytotoxicity against human NCI-H322M cells assessed as growth inhibition after 48 hrs by sulforhodamine B assay; details: for CC50: read-out: LC50 (the source's name)
# [8] = system: DU-145; assay: Cytotoxicity against human DU145 cells assessed as cell growth at 1 uM after 48 hrs by sulforhodamine B assay relative to control; details: DU-145, 48 h, read-out: Activity
# [9] = system: SK-MEL-5; assay: Cytotoxicity against human SK-MEL-5 cells assessed as cell growth at 0.1 uM after 48 hrs by sulforhodamine B assay relative to control; details: SK-MEL-5, 48 h, read-out: Activity
# [10] = system: SF-268; assay: Cytotoxicity against human SF268 cells assessed as cell growth at 0.1 uM after 48 hrs by sulforhodamine B assay relative to control; details: SF-268, 48 h, read-out: Activity
# [11] = system: UACC-62; assay: Cytotoxicity against human UACC62 cells assessed as cell growth at 100 uM after 48 hrs by sulforhodamine B assay relative to control; details: UACC-62, 48 h, read-out: Activity
# [12] = system: 786-0; assay: Cytotoxicity against human 786-0 cells assessed as cell growth at 0.01 uM after 48 hrs by sulforhodamine B assay relative to control; details: 786-0, 48 h, read-out: Activity
# [13] = system: DU-145; assay: Cytotoxicity against human DU145 cells assessed as cell growth at 10 uM after 48 hrs by sulforhodamine B assay relative to control; details: DU-145, 48 h, read-out: Activity
# [14] = system: MDA-MB-468; assay: Cytotoxicity against human MDA-MB-468 cells assessed as growth inhibition after 48 hrs by sulforhodamine B assay; details: MDA-MB-468, 48 h
# [15] = system: MCF7; assay: Cytotoxicity against human MCF7 cells assessed as cell growth at 0.01 uM after 48 hrs by sulforhodamine B assay relative to control; details: MCF7, 48 h, read-out: Activity
# [16] = system: NCI-H23; assay: Cytotoxicity against human NCI-H23 cells assessed as cell growth at 10 uM after 48 hrs by sulforhodamine B assay relative to control; details: NCI-H23, 48 h, read-out: Activity
# [17] = system: TK-10; assay: Cytotoxicity against human TK10 cells assessed as cell growth at 0.1 uM after 48 hrs by sulforhodamine B assay relative to control; details: TK-10, 48 h, read-out: Activity
# [18] = system: DU-145; assay: Cytotoxicity against human DU145 cells assessed as growth inhibition after 48 hrs by sulforhodamine B assay; details: DU-145, 48 h; for CC50: read-out: LC50 (the source's name)
# [19] = system: HCT-116; assay: Cytotoxicity against human HCT116 cells assessed as growth inhibition after 48 hrs by sulforhodamine B assay; details: HCT-116, 48 h
# [20] = system: TK-10; assay: Cytotoxicity against human TK10 cells assessed as cell growth at 10 uM after 48 hrs by sulforhodamine B assay relative to control; details: TK-10, 48 h, read-out: Activity
# [21] = system: KM12; assay: Cytotoxicity against human KM12 cells assessed as cell growth at 1 uM after 48 hrs by sulforhodamine B assay relative to control; details: KM12, 48 h, read-out: Activity
# [22] = system: Malme-3M; assay: Cytotoxicity against human MALME-3M cells assessed as cell growth at 100 uM after 48 hrs by sulforhodamine B assay relative to control; details: read-out: Activity
# [23] = system: RPMI-8226; assay: Cytotoxicity against human RPMI8226 cells assessed as cell growth at 0.01 uM after 48 hrs by sulforhodamine B assay relative to control; details: RPMI-8226, 48 h, read-out: Activity
# [24] = system: NCI-H460; assay: Cytotoxicity against human NCI-H460 cells assessed as cell growth at 0.1 uM after 48 hrs by sulforhodamine B assay relative to control; details: NCI-H460, 48 h, read-out: Activity
# [25] = system: OVCAR-3; assay: Cytotoxicity against human OVCAR3 cells assessed as cell growth at 0.01 uM after 48 hrs by sulforhodamine B assay relative to control; details: OVCAR-3, 48 h, read-out: Activity
# [26] = system: COLO 205; assay: Cytotoxicity against human COLO205 cells assessed as cell growth at 1 uM after 48 hrs by sulforhodamine B assay relative to control; details: COLO 205, 48 h, read-out: Activity
# [27] = system: CCRF-CEM; assay: Cytotoxicity against human CCRF-CEM cells assessed as cell growth at 1 uM after 48 hrs by sulforhodamine B assay relative to control; details: read-out: Activity
# [28] = system: NCI-H322M; assay: Cytotoxicity against human NCI-H322M cells assessed as cell growth at 1 uM after 48 hrs by sulforhodamine B assay relative to control; details: read-out: Activity
# [29] = system: KM12; assay: Cytotoxicity against human KM12 cells assessed as cell growth at 0.01 uM after 48 hrs by sulforhodamine B assay relative to control; details: KM12, 48 h, read-out: Activity
# [30] = system: COLO 205; assay: Cytotoxicity against human COLO205 cells assessed as cell growth at 100 uM after 48 hrs by sulforhodamine B assay relative to control; details: COLO 205, 48 h, read-out: Activity
# [31] = system: MDA-MB-231; assay: Cytotoxicity against human MDA-MB-231 cells assessed as cell growth at 1 uM after 48 hrs by sulforhodamine B assay relative to control; details: MDA-MB-231, 48 h, read-out: Activity
# [32] = system: NCI-H522; assay: Cytotoxicity against human NCI-H522 cells assessed as growth inhibition after 48 hrs by sulforhodamine B assay; details: NCI-H522, 48 h
# [33] = system: HOP-62; assay: Cytotoxicity against human HOP62 cells assessed as cell growth at 0.01 uM after 48 hrs by sulforhodamine B assay relative to control; details: HOP-62, 48 h, read-out: Activity
# [34] = system: T47D; assay: Cytotoxicity against human T47D cells assessed as cell growth at 100 uM after 48 hrs by sulforhodamine B assay relative to control; details: read-out: Activity
# [35] = system: Malme-3M; assay: Cytotoxicity against human MALME-3M cells assessed as growth inhibition after 48 hrs by sulforhodamine B assay
compound,measurement,setting,value
COc1ccc(-c2cc(/C=C/C(=O)c3ccc(OC)c(OC)c3)[nH]n2)cc1,growth at 1 µM,[1],72%
same,GI50,[2],1.17 µM
same,LC50,[2],5.1 µM
same,TGI,[2],2.44 µM
same,growth at 0.1 µM,[3],98%
same,growth at 10 µM,[4],-64%
same,GI50,[5],1.77 µM
same,LC50 (concentration killing 50% of cells),[5],7.83 µM
same,TGI,[5],3.72 µM
same,GI50,[6],1.84 µM
same,LC50,[6],8.17 µM
same,TGI,[6],3.88 µM
same,GI50,[7],1.62 µM
same,TGI,[7],4.92 µM
same,CC50,[7],18.7 µM
same,growth at 1 µM,[8],74%
same,growth at 0.1 µM,[9],93%
same,growth at 0.1 µM,[10],99%
same,growth at 100 µM,[11],-100%
same,growth at 0.01 µM,[12],100%
same,growth at 10 µM,[13],-91%
same,GI50,[14],1.22 µM
same,LC50,[14],7.12 µM
same,TGI,[14],2.94 µM
same,growth at 0.01 µM,[15],91%
same,growth at 10 µM,[16],-24%
same,growth at 0.1 µM,[17],102%
same,GI50,[18],1.4 µM
same,TGI,[18],2.81 µM
same,CC50,[18],5.64 µM
same,GI50,[19],1.01 µM
same,LC50,[19],6.08 µM
same,TGI,[19],2.48 µM
same,growth at 10 µM,[20],-59%
same,growth at 1 µM,[21],70%
same,growth at 100 µM,[22],-100%
same,growth at 0.01 µM,[23],106%
same,growth at 0.1 µM,[24],101%
same,growth at 0.01 µM,[25],106%
same,growth at 1 µM,[26],95%
same,growth at 1 µM,[27],63%
same,growth at 1 µM,[28],72%
same,growth at 0.01 µM,[29],105%
same,growth at 100 µM,[30],-77%
same,growth at 1 µM,[31],79%
same,GI50,[32],0.41 µM
same,LC50,[32],5.91 µM
same,TGI,[32],1.39 µM
same,growth at 0.01 µM,[33],97%
same,growth at 100 µM,[34],-83%
same,GI50,[35],1.62 µM
same,LC50,[35],7.38 µM
same,TGI,[35],3.45 µM
COc1ccc(-c2cc(/C=C/C(=O)c3ccc(N)cc3)[nH]n2)cc1OC,growth at 1 µM,[1],94%
same,GI50,[2],3.03 µM
same,LC50,[2],43.2 µM
same,TGI,[2],13.1 µM
same,growth at 0.1 µM,[3],93%
same,growth at 10 µM,[4],-13%
same,GI50,[5],3.16 µM
same,LC50 (concentration killing 50% of cells),[5],36.1 µM
same,TGI,[5],11.5 µM
same,GI50,[6],2.53 µM
same,LC50,[6],40.8 µM
same,TGI,[6],7.23 µM
same,GI50,[7],4.34 µM
same,TGI,[7],16.5 µM
same,CC50,[7],46.2 µM
same,growth at 1 µM,[8],97%
same,growth at 0.1 µM,[9],95%
same,growth at 0.1 µM,[10],101%
same,growth at 100 µM,[11],-86%
same,growth at 0.01 µM,[12],91%
same,growth at 10 µM,[13],15%
same,GI50,[14],1.55 µM
same,LC50,[14],7.8 µM
same,TGI,[14],3.48 µM
same,growth at 0.01 µM,[15],89%
same,growth at 10 µM,[16],21%
same,growth at 0.1 µM,[17],100%
same,GI50,[18],3.74 µM
same,TGI,[18],13.5 µM
same,CC50,[18],36.8 µM
same,GI50,[19],1.71 µM
same,LC50,[19],7.19 µM
same,TGI,[19],3.51 µM
same,growth at 10 µM,[20],56%
same,growth at 1 µM,[21],88%
same,growth at 100 µM,[22],-75%
same,growth at 0.01 µM,[23],98%
same,growth at 0.1 µM,[24],100%
same,growth at 0.01 µM,[25],106%
same,growth at 1 µM,[26],98%
same,growth at 1 µM,[27],68%
same,growth at 1 µM,[28],95%
same,growth at 0.01 µM,[29],102%
same,growth at 100 µM,[30],-78%
same,growth at 1 µM,[31],98%
same,GI50,[32],1.65 µM
same,LC50,[32],6.3 µM
same,TGI,[32],3.22 µM
same,growth at 0.01 µM,[33],83%
same,growth at 100 µM,[34],-40%
same,GI50,[35],6.72 µM
same,LC50,[35],59.2 µM
same,TGI,[35],21.2 µM
